Measurements published in publication PMC10584170, “Machine learning-based phenotypic imaging to characterise the targetable biology of Plasmodium falciparum male gametocytes for the development of transmission-blocking antimalarials” (PLOS Pathogens, 2023).
pIC50: −log10 of the molar value. Like-named read-outs stand apart in the source and are kept apart here.

Assays:
[1] = system: P. falciparum male gametocytes; test: P. falciparum Dual Gamete Formation Assay (PfDGFA), male readout (exflagellation); assay type: cell-based, Plasmodium falciparum NF54; conditions: for % inhibition male (individual replicates) R3: replicate R3; for pIC50: PfDGFA, 24 h incubation with gametocytes before induction, exflagellation readout, read-out: Male IC50; for HitlevelM: number of replicates with >50% inhibition in the male readout
Description: (§1) P. falciparum NF54 (originally isolated from an imported malaria case in the Netherlands in the 1980s; BEI Resources, cat. No. MRA-1000) strain asexual parasites were maintained between 0.3–5% parasitaemia by regular passage in complete culture medium (RPMI supplemented with 25 mM HEPES, 50 μg ml^−1 hypoxanthine, 4.8 g l^−1 NaHCO3, 2mM L-glutamine, 5% pooled type AB serum, 0.5% Albumax II (Gibco)) at 4% haematocrit in washed whole blood (National Blood and Transfusion Service or Centro de Transfusiones de la Comunidad de Madrid CTCM) under a 1% O2/3% CO2/96% N2 environment. Gametocytes were induced by seeding culture flasks at 2% parasitaemia/4% haematocrit and subjecting them to daily medium changes for 14 days whilst maintaining a temperature of 37°C at all times. On Day 14, the maturity of gametocytes was assessed by quantifying male gametogenesis (exflagellation). A 20 μl sample of gametocyte culture was mixed with equal volume of ookinete medium (complete culture medium supplemented with 0.1 μM xanthurenic acid) at room temperature and transferred to a haemocytometer. After 20 min at room temperature, exflagellation was accurately quantified as described in Delves et al. 2016 [17].
(§2) The Pf DGFA was performed as described in Delves et al. 2016 [17]. […] Plates were then incubated for 24 h at 37°C in a humidified box under a 1% O2/3% CO2/96% N2 gas mix. Gametogenesis was triggered by addition of 10 μl per well of ookinete medium + 0.27 μg ml^-1 Cy3-labelled anti-Pfs25 antibody. Plates were incubated on a metal block at 4°C for 4 min to ensure even cooling, then 28°C for a further 4 min. Exflagellation was recorded by capturing 10 frames over 1 s under brightfield illumination using a x4 objective with a 1.5x zoom (effectively x6) attached to an automated Nikon Ti fluorescence microscope. After recording exflagellation, plates were incubated for a further 24 h in the dark at 28°C to ensure maximal expression of Pfs25 by female gametes. The plates were then returned to the microscope and female gametes imaged at x6 using fluorescence microscopy.
(§3) Exflagellation centres and female gametes were quantified using custom image analysis pipelines developed within ICY Bioimage Analysis (https://icy.bioimageanalysis.org/).

[2] = system: P. falciparum female gametocytes; test: P. falciparum Dual Gamete Formation Assay (PfDGFA), female readout (Pfs25-positive female gametes); assay type: cell-based, Plasmodium falciparum NF54; conditions: for pIC50: PfDGFA, 24 h incubation with gametocytes before induction, female gamete readout, read-out: Female IC50; for HitlevelF: number of replicates with >50% inhibition in the female readout
Description: as §1, §2, §3

[3] = PfDGFA at 2µM, 24h preincubation with gametocytes prior to induction of gametogenesis, replicate R1
[4] = PfDGFA at 2µM, 24h preincubation with gametocytes prior to induction of gametogenesis
[5] = PfDGFA at 2µM, 24h preincubation with gametocytes prior to induction of gametogenesis, replicate R4
[6] = PfDGFA at 2µM, 24h preincubation, average of replicates
[7] = PfDGFA at 2µM, 24h preincubation with gametocytes prior to induction of gametogenesis, replicate R3
[8] = PfDGFA at 2µM, 24h preincubation with gametocytes, average of replicates
[9] = PfDGFA at 2µM, 24h preincubation with gametocytes, replicate R1
[10] = PfDGFA at 2µM, 24h preincubation with gametocytes, replicate R4
[11] = 2µM, 24h preincubation with gametocytes, average of replicates
[12] = 2µM, 24h preincubation with gametocytes, replicate R1
[13] = 2µM, 24h preincubation with gametocytes, replicate R4

Structure (SMILES) | % inhibition male (individual replicates) R1 [1, 3] [%] | % inhibition male (individual replicates) R3 [1, 4] [%] | % inhibition male (individual replicates) R4 [1, 5] [%] | Average inhibition male (%) [1, 6] [%] | % inhibition female (individual replicates) R1 [2, 3] [%] | % inhibition female (individual replicates) R3 [2, 7] [%] | % inhibition female (individual replicates) R4 [2, 5] [%] | Average inhibition female (%) [2, 6] [%] | also measured
Br.CC(C)(C)c1ccc(Cn2c(=N)n(CC(=O)c3ccc(-c4ccccc4)cc3)c3ccccc32)cc1 [TCMDC-124030] | -15.4 | -16.6 | -3.3 | -8.2 | -3.8 | -20.2 | -0.7 | -8.6 | –
O=C(Nc1ccc([N+](=O)[O-])cc1)c1nn(-c2ccccc2)cc1/N=C/c1cccc(O)c1 [TCMDC-124108] | -5.9 | -27.6 | -9.8 | -10.2 | 7.8 | -29.5 | -3.2 | -2.4 | –
c1ccc2[nH]c(CN(Cc3nc4ccccc4[nH]3)Cc3nc4ccccc4[nH]3)nc2c1 [TCMDC-124132] | – | – | – | – | – | – | – | – | Selectivity Ratio M ([1]; HepG2 Tox50 versus male IC50): 14.81; inhibition at 2 µM ([1]; Plasmodium falciparum, PfDGFA at 2µM, 24h preincubation with gametocytes, average of replicates, read-out: Average inhibition male (%)): 78.3%; inhibition at 2 µM ([1]; Plasmodium falciparum, PfDGFA at 2µM, 24h preincubation with gametocytes, replicate R1, read-out: % inhibition male (individual replicates) R1): 68.8%; inhibition at 2 µM ([1]; Plasmodium falciparum, PfDGFA at 2µM, 24h preincubation with gametocytes, replicate R2, read-out: % inhibition male (individual replicates) R2): 80.9%; inhibition at 2 µM ([1]; Plasmodium falciparum, PfDGFA at 2µM, 24h preincubation with gametocytes, replicate R4, read-out: % inhibition male (individual replicates) R4): 85.2%; pIC50 ([1]; Plasmodium falciparum): 5.17; HitlevelM ([1]; 2µM): 3; Selectivity ratio F ([2]; HepG2 Tox50 versus female IC50): 10.00; inhibition at 2 µM ([2]; Plasmodium falciparum, PfDGFA at 2µM, 24h preincubation with gametocytes, average of replicates, read-out: Average inhibition female (%)): 5%; inhibition at 2 µM ([2]; Plasmodium falciparum, PfDGFA at 2µM, 24h preincubation with gametocytes, replicate R1, read-out: % inhibition female (individual replicates) R1): 1.1%; inhibition at 2 µM ([2]; Plasmodium falciparum, PfDGFA at 2µM, 24h preincubation with gametocytes, replicate R2, read-out: % inhibition female (individual replicates) R2): -7.6%; inhibition at 2 µM ([2]; Plasmodium falciparum, PfDGFA at 2µM, 24h preincubation with gametocytes, replicate R3, read-out: % inhibition female (individual replicates) R3): 23.9%; inhibition at 2 µM ([2]; Plasmodium falciparum, PfDGFA at 2µM, 24h preincubation with gametocytes, replicate R4, read-out: % inhibition female (individual replicates) R4): 2.5%; pIC50 ([2]; Plasmodium falciparum): < 5.00; HitlevelF ([2]; 2µM): 0
COc1ccc(N2C(N)=NC(N)=NC2(C)C)cc1.Cl [TCMDC-124269] | 22.5 | 4.0 | -9.1 | 11.6 | 13.5 | -15.3 | 10.3 | 1.7 | –
CC(=NNC(=S)NCCc1ccccc1)c1ccccn1 [TCMDC-124270] | – | – | – | – | – | – | – | – | Average inhibition male (%) [1, 8]: 63.1%; % inhibition male (individual replicates) R1 [1, 9]: 70.1%; % inhibition male (individual replicates) R3 ([1]; PfDGFA at 2µM, 24h preincubation with gametocytes): 69.5%; % inhibition male (individual replicates) R4 [1, 10]: 18.9%; pIC50 [1]: 6.19; HitlevelM ([1]; 2µM): 3; Average inhibition female (%) [2, 8]: 36.2%; % inhibition female (individual replicates) R1 [2, 9]: 25.2%; % inhibition female (individual replicates) R3 ([2]; PfDGFA at 2µM, 24h preincubation with gametocytes, replicate R3): 20.9%; % inhibition female (individual replicates) R4 [2, 10]: 55.8%; pIC50 [2]: 6.28; HitlevelF ([2]; 2µM): 1
CC(C)(c1ccccc1)c1ccc(O)c(CN2CCOCC2)c1 [TCMDC-124276] | 1.1 | – | -1.8 | 10.2 | 0.5 | 8.1 | -2.3 | -2.0 | –
CC(=NNC(=S)Nc1ccccc1Cl)c1ccccn1 [TCMDC-124278] | – | – | – | – | – | – | – | – | Average inhibition male (%) [1, 11]: 101.3%; % inhibition male (individual replicates) R1 [1, 12]: 101.8%; % inhibition male (individual replicates) R3 ([1]; 2µM, 24h preincubation with gametocytes): 99.8%; % inhibition male (individual replicates) R4 [1, 13]: 103.6%; pIC50 [1]: 6.96; Average inhibition female (%) [2, 11]: 61.5%; % inhibition female (individual replicates) R1 [2, 12]: 40.0%; % inhibition female (individual replicates) R3 ([2]; 2µM, 24h preincubation with gametocytes, replicate R3): 55.6%; % inhibition female (individual replicates) R4 [2, 13]: 74.7%; pIC50 [2]: 6.52
CCCCOc1ccc(N2C(N)=NC(N)=NC2(C)C)cc1.Cl [TCMDC-124279] | -7.3 | -37.1 | -28.5 | -17.0 | 2.1 | -37.2 | 21.1 | -3.8 | –
